Experimental data as given in PMC5558686 (British Journal of Cancer, 2017).
Where a name gives a salt, the structure may show the parent alone.

Columns and labels:
[1] = system: UACC 903 xenografted tumours; test: Xenografted melanoma tumour growth; assay type: in vivo, athymic-Foxn1−/− (nude) mice; settings: for reduction of tumour growth / tumour inhibition: oral administration, UACC 903 xenograft, day 22
UACC 903 cells [2] = test: Cholesterol localisation assay; assay type: cell-based; settings: after 6 h
prostate cancer = settings: phase-2; ref Clinical Trial Id: NCT00417274; cited from earlier work
UACC 903 cells [3] = test: Co-treatment with apoptosome inhibitor NS3694, viability; assay type: cell-based; settings: 50 μMol/l NS-3694 co-treatment
UACC 903 cells [4] = test: Western blot of autophagic flux markers LC3B and p62/SQSTM1; assay type: cell-based
[5] = Body weight of treated mice; assay type: in vivo; settings: for loss of body weight: xenograft mice, 2 days after oral drug treatments
[6] = system: UACC 903, 1205 Lu and A2058 tumour development; test: Xenografted melanoma tumour growth; assay type: in vivo, athymic-Foxn1−/− (nude) mice; settings: for tumour weights lower than control groups: end of treatment, Figure 2E and H (UACC 903 and A2058); for decrease in tumour development: oral, perphenazine 50 mg kg^−1 or fluphenazine 25 mg kg^−1 at 4-day intervals
[7] = CNS related sedation, video surveillance; assay type: in vivo, Swiss Webster mice; settings: for onset of sedation after oral administration / persistence of sedation: xenograft mice, oral
UACC 903 cells [8] = test: Co-treatment with necrosis inhibitors IM-54 / Necrostatin-5, viability; assay type: cell-based; settings: IM-54 and Necrostatin-5
UACC 903 cells [9] = test: Mitochondrial membrane potential; assay type: cell-based
[10] = H&E histology of major organs; assay type: in vivo, mice; settings: oral treatment
Serum toxicity markers = assay type: in vivo, mice; settings: serum at end of oral treatment
[11] = system: BAX-knockout HCT116 cells; test: Viability of BAX-knockout HCT116 cells; assay type: cell-based, human; settings: 24 h, increasing concentrations
UACC 903 cells [12] = test: Caspase-dependence, z-VAD-fmk pre-treatment, viability; assay type: cell-based; settings: z-VAD-fmk 20 μmol l^−1, 1 h pre-treatment; TRAIL 50 ng ml^−1

## CNCCCN1c2ccccc2CCc2ccccc21 [Desipramine, Desipramine HCL]
[1]
  reduction of tumour growth / tumour inhibition: 30%

## CCN(CC)CCO[C@H]1CC[C@@]2(C)C(=CC[C@@H]3[C@@H]2CC[C@]2(C)C(=O)CC[C@@H]32)C1.Cl [U18666A, U-18666A]
UACC 903 cells [2]
  intracellular cholesterol accumulation (Filipin-III staining): intracellular cholesterol accumulation

## CCN(CC)CCCC(C)Nc1c2ccc(Cl)cc2nc2ccc(OC)cc12 (stereo not shown) [quinacrine, Mepacrine (Quinacrine) DiHCL]
Prostate cancer
  patients with stabilisation or decrease in the rate of disease progression: ~50 % of the patients

## OCCN1CCN(CCC=C2c3ccccc3Sc3ccc(C(F)(F)F)cc32)CC1 [Flupentixol, Flupenthixol diHCL]
UACC 903 cells [3]
  protection from cell death by NS-3694: partially protected

## OCCN1CCN(CCCN2c3ccccc3Sc3ccc(C(F)(F)F)cc32)CC1 [Fluphenazine]
UACC 903 cells [4]
  LC3B and p62 protein levels (western blot): dose-dependent accumulation of LC3B and p62 proteins
UACC 903 cells [3]
  protection from cell death by NS-3694: partially protected
[5]
  loss of body weight: 10%
[6]
  tumour weights lower than control groups: 40–60%
  decrease in tumour development: 40–60%
[7]
  onset of sedation after oral administration: Thirty to sixty minutes
  persistence of sedation: > 24 h

## CC(C)c1ccc2c(c1)CC[C@H]1[C@](C)(CN)CCC[C@]21C [Leelamine]
UACC 903 cells [2]
  intracellular cholesterol accumulation (Filipin-III staining): intracellular cholesterol accumulation
UACC 903 cells [8]
  protection from cell death by necrosis inhibitors: neither of the two necrosis inhibitors, IM-54 and Necrostatin-5, protected

## CNCCC=C1c2ccccc2CCc2ccccc21 [Nortriptyline, Nortriptyline HCL]
UACC 903 cells [4]
  LC3B and p62 protein levels (western blot): dose-dependent accumulation of LC3B and p62 proteins
[1]
  reduction of tumour growth / tumour inhibition: 50%

## OCCN1CCN(CCCN2c3ccccc3Sc3ccc(Cl)cc32)CC1 [Perphenazine]
UACC 903 cells [9]; 6 h 10 μM
  ΔΨmt − (cells that lost MMP): 19%
UACC 903 cells [9]; 6 h 15 μM
  ΔΨmt − (cells that lost MMP): 28%
UACC 903 cells [4]
  LC3B and p62 protein levels (western blot): dose-dependent accumulation of LC3B and p62 proteins
[10]
  histological analysis of vital organs: no alteration in cell morphology or tissue architecture
UACC 903 cells [3]
  protection from cell death by NS-3694: partially protected
[5]; Swiss Webster mice, following treatment
  body weight loss: 10%
[5]
  loss of body weight: 10%
[6]
  tumour weights lower than control groups: 40–60%
  decrease in tumour development: 40–60%
[7]; 15 mg kg^−1 oral
  % of time mice awake in 24 h period: slightly greater sedative effect compared to liposomal treatment
[7]; 50 mg kg^−1 oral
  % of time mice awake in 24 h period: 6%
[7]
  onset of sedation after oral administration: Thirty to sixty minutes
  persistence of sedation: > 24 h
Serum toxicity markers
  total bilirubin levels compared to controls: significantly higher
[1]; 12.5 or 25 mg kg^−1, orally every other day
  inhibition of UACC 903 tumour development by the free drug: ineffective
[1]
  reduction of tumour growth / tumour inhibition: 60%
[1]; tumours from treated animals
  mitotic figures in H&E stained tumour sections: significant decrease in mitotic figure numbers
[11]
  sensitivity of BAX-knockout compared with wild-type HCT116 cells: more resistant

B1: TRAIL: positive control for caspase-dependent cell death (50 ng ml^−1) (protein, UniProt P50591 1-281, looked up)
Tumor necrosis factor ligand …: MAMMEVQGGPSLGQTCVLIVIFTVLLQSLCVAVTYVYFTNELKQMQDKYSKSGIACFLKEDDSYWDPNDEESMNSPCWQVKWQLRQLVRKMILRTSEETISTVQEKQQNISPLVRERGPQRVAAHITGTRGRSNTLSSPNSKNEKALGRKINSWESSRSGHSFLSNLHLRNGELVIHEKGFYYIYSQTYFRFQEEIKENTKNDKQMVQYIYKYTSYPDPILLMKSARNSCWSKDAEYGLYSIYQGGIFELKENDRIFVSVTNEHLIDMDHEASFFGAFLVG
UACC 903 cells [12]
  effect of pan-caspase inhibitor z-VAD-fmk on cell death: protected cells from apoptosis
